This note sets out measurements from patent US10501421B1, “Substituted benzimidazoles as modulators of Ras signaling” (VANDERBILT UNIVERSITY, priority 2017, dated 2019).

This test concerns the target Ras GEF SOS (Son of Sevenless) (Homo sapiens, UniProt Q07889). Kind of test: SOS-mediated nucleotide exchange on Ras (BODIPY-GDP fluorescence). It counts as biochemical. To be noted: SOS-mediated exchange of BODIPY-GDP for GTP on Ras. As to the method: Compounds of the present invention were tested for their ability to modify the rate at which Ras exchanges a labeled nucleotide guanosine diphosphate (GDP) analog for guanosine triphosphate (GTP). Briefly, test compounds, then GTP and the Ras GEF SOS (Son of Sevenless) are added to a buffered solution containing Ras protein loaded with BODIPY-GDP. Changes in fluoresence indicating exchange of the labeled GDP for GTP are monitored over time. Raw fluorescence data was fit to a single exponential decay function and derived rates were plotted as mean values. EC50 values were calculated by plotting mean derived rates as a function of compound concentration and fit using a four-parameter dose-response curve. This assay is performed in a method analogous to the assay disclosed in: Burns, M. C.; Sun, Q.; Daniels, R. N.; Camper, D. V.; Kennedy, J. P.; Phan, J.; Olejniczak, E. O.; Lee, T.; Waterson, A. G.; Rossanese, O. W.; Fesik, S. W. “Approach for targeting Ras with small molecules that activate SOS-mediated nucleotide exchange” Proc. Natl. Acad. Sci. 2014; 11(9): 3401-3406. PMCID: PMC3948241.

Counter-ions that a name gives are not always drawn.

Sequence of Ras GEF SOS (Son of Sevenless) (Q07889 564-1049 limits assumed): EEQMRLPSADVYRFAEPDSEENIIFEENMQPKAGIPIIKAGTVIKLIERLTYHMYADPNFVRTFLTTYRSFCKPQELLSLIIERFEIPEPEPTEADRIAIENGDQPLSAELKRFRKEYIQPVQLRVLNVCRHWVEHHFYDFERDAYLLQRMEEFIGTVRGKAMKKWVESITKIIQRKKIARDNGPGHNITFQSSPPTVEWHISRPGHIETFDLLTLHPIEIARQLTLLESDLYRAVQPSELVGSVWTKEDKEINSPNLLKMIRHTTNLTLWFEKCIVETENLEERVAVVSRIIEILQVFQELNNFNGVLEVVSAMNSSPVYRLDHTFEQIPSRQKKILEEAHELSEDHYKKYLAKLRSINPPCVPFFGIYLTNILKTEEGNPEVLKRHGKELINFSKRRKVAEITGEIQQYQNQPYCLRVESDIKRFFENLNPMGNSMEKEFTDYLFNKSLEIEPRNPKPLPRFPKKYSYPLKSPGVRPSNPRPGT
Sequence of Ras GEF SOS (Son of Sevenless) (P01112 1-166 partner limits assumed): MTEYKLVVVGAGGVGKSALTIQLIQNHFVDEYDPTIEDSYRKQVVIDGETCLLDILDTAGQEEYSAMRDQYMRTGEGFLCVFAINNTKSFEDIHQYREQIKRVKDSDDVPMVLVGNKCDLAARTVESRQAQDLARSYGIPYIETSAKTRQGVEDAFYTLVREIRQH

For `Cc1cc2nc(-c3ccncc3)n(Cc3ccc(F)c(Cl)c3)c2cc1C` [Example 54, 1-(3-chloro-4-fluorobenzyl)-5,6-dimethyl-2-(pyridin-4-yl)-1H-benzo[d]imidazole], the EC50 lay within 30 to 100 µM.

On to `Cc1cc2nc(NCCN(C)C)n(Cc3ccc(F)c(Cl)c3)c2cc1C` [Example 28, N^1-(1-(3-chloro-4-fluorobenzyl)-5,6-dimethyl-1H-benzo[d]imidazol-2-yl)-N^2,N^2-dimethylethane-1,2-diamine trifluoroacetate], for which the EC50 lay within 1 to 5 µM.

`Fc1ccc(Cn2c(N3CCNCC3)nc3ncccc32)cc1` [Example 249, 1-(4-fluorobenzyl)-2-(piperazin-1-yl)-1H-imidazo[4,5-b]pyridine]: the EC50 was 5 to 30 µM.

`Cc1cc2nc(N3CCN(C)CC3)n(Cc3ccc(F)c(Cl)c3)c2cc1C` [Example 27, 1-(3-chloro-4-fluorobenzyl)-5,6-dimethyl-2-(4-methylpiperazin-1-yl)-1H-benzo[d]imidazole trifluoroacetate] returned an EC50 of 30 to 100 µM.

`Cc1cc2nc(NCCN3CCOCC3)n(Cc3ccc(F)cc3)c2cc1C` [Example 29, 1-(4-fluorobenzyl)-5,6-dimethyl-N-(2-morpholinoethyl)-1H-benzo[d]imidazol-2-amine trifluoroacetate]: the EC50 lay in the range of 30 to 100 µM.

`Cc1cnc2nc(N3CCNCC3)n(Cc3ccc(F)c(Cl)c3)c2c1` [Example 242, 1-(3-chloro-4-fluorobenzyl)-6-methyl-2-(piperazin-1-yl)-1H-imidazo[4,5-b]pyridine] displayed an EC50 of 1 to 5 µM.

For the compound `Cc1cc2nc(N)n(Cc3ccc(Cl)cc3)c2cc1C` [Example 5, 1-(4-chlorobenzyl)-5,6-dimethyl-1H-benzo[d]imidazol-2-amine], the EC50 lay within 30 to 100 µM.

`Nc1nc2ccccc2n1Cc1ccc(F)c(Cl)c1` [Example 2, 1-(3-chloro-4-fluorobenzyl)-1H-benzo[d]imidazol-2-amine] displayed an EC50 of 30 to 100 µM.

Compound `NCCc1cccc2c1nc(N1CCNCC1)n2Cc1ccc(C(F)(F)F)cc1` [Example 100, 2-(2-(piperazin-1-yl)-1-(4-(trifluoromethyl)benzyl)-1H-benzo[d]imidazol-4-yl)ethan-1-amine trifluoroacetate] came in with an EC50 of 1 to 5 µM.

In turn, `Fc1cc(F)cc(Cn2c(C3CCNCC3)nc3ccccc32)c1` [Example 57, 1-(3,5-difluorobenzyl)-2-(piperidin-4-yl)-1H-benzo[d]imidazole trifluoroacetate] returned an EC50 of 5 to 30 µM.

Compound `Cc1cc2nc(N)n(Cc3cc(F)cc(F)c3)c2cc1C` [Example 6, 1-(3,5-difluorobenzyl)-5,6-dimethyl-1H-benzo[d]imidazol-2-amine] came in with an EC50 of 30 to 100 µM.

Consider `Fc1ccc(Cn2cnc3ncccc32)cc1` [Example 253, 1-(4-fluorobenzyl)-1H-imidazo[4,5-b]pyridine], for which the EC50 was in the range of 30 to 100 µM.

`Cc1cc2c(nc(N3CCNCC3)n2Cc2ccc(F)c(C)c2)c(CN2CCCC2)n1` [Example 236, 1-(4-fluoro-3-methylbenzyl)-6-methyl-2-(piperazin-1-yl)-4-(pyrrolidin-1-ylmethyl)-1H-imidazo[4,5-c]pyridine] had an EC50 of 30 to 100 µM.

Take `Cc1cc2nc(NCCN3CCOCC3)n(Cc3ccc(F)c(Cl)c3)c2cc1C` [Example 30, 1-(3-chloro-4-fluorobenzyl)-5,6-dimethyl-N-(2-morpholinoethyl)-1H-benzo[d]imidazol-2-amine trifluoroacetate]: the EC50 was 5 to 30 µM.

On to `Cc1cnc2nc(N3CCNCC3)n(Cc3ccc(F)c(C)c3)c2c1` [Example 244, 1-(4-fluoro-3-methylbenzyl)-6-methyl-2-(piperazin-1-yl)-1H-imidazo[4,5-b]pyridine], for which the EC50 fell in the range of 5 to 30 µM.

The compound `Clc1ccc(Cn2c(Cl)nc3ncccc32)cc1` [Example 254, 2-chloro-1-(4-chlorobenzyl)-1H-imidazo[4,5-b]pyridine] showed an EC50 of 30 to 100 µM.

For the compound `NCCc1cccc2c1nc(N1CCNCC1)n2Cc1cc(F)cc(F)c1` [Example 99, 2-(1-(3,5-difluorobenzyl)-2-(piperazin-1-yl)-1H-benzo[d]imidazol-4-yl)ethan-1-amine trifluoroacetate], the EC50 is 5 to 30 µM.

With `CC(C)N1CC[C@@H](C(=O)c2ccccc2)[C@H]1c1cc(Cl)cc2c1nc(N1CCNCC1)n2Cc1ccc(F)c(Cl)c1` [Example 152, ((2S,3R)-2-(6-chloro-1-(3-chloro-4-fluorobenzyl)-2-(piperazin-1-yl)-1H-benzo[d]imidazol-4-yl)-1-isopropylpyrrolidin-3-yl)(phenyl)methanone trifluoroacetate], the EC50 was in the range of 1 to 5 µM.

Take `Oc1ccc(-c2cccc3c2nc(N2CCNCC2)n3Cc2ccc(F)c(Cl)c2)cc1` [Example 264, 4-[1-[(3-chloro-4-fluorophenyl)methyl]-2-piperazin-1-ylbenzimidazol-4-yl]phenol]: the 50% effective concentration (EC50) was in the range of 5 to 30 µM.

Take `Cc1cc2c(nc(N3CCNCC3)n2Cc2ccc(F)c(C)c2)c(CN2CCC(O)CC2)n1` [Example 238, 1-((1-(4-fluoro-3-methylbenzyl)-6-methyl-2-(piperazin-1-yl)-1H-imidazo[4,5-c]pyridin-4-yl)methyl)piperidin-4-ol]: the EC50 was in the range of 30 to 100 µM.

`Cc1cc2c(nc(NCCN)n2Cc2cccc(C#N)c2)c(-c2ccccc2Cl)c1C` [Example 117, 3-((2-((2-aminoethyl)amino)-4-(2-chlorophenyl)-5,6-dimethyl-1H-benzo[d]imidazol-1-yl)methyl)benzonitrile trifluoroacetate] showed an EC50 of 1 to 5 µM.

Regarding `Cc1cc2nc(N3CCNCC3)n(Cc3cccc(C(F)(F)F)c3)c2cc1C` [Example 32, 5,6-dimethyl-2-(piperazin-1-yl)-1-(3-(trifluoromethyl)benzyl)-1H-benzo[d]imidazole trifluoroacetate], the EC50 lay within 5 to 30 µM.

`C=Cc1nc(C)cc2c1nc(N1CCNCC1)n2Cc1ccc(F)c(C)c1` [Example 239, 1-(4-fluoro-3-methylbenzyl)-6-methyl-2-(piperazin-1-yl)-4-vinyl-1H-imidazo[4,5-c]pyridine]: the EC50 was in the range of 30 to 100 µM.

With `Fc1ccc(Cn2c(N3CCOCC3)nc3ccccc32)cc1Cl` [Example 8, 4-(1-(3-chloro-4-fluorobenzyl)-1H-benzo[d]imidazol-2-yl)morpholine], the EC50 fell in the range of 30 to 100 µM.

`Cc1ccc2nc([C@@H](N)Cc3ccc(O)cc3)n(Cc3ccc(F)cc3)c2c1` [Example 272, 4-[(2S)-2-amino-2-[1-[(4-fluorophenyl)methyl]-6-methylbenzimidazol-2-yl]ethyl]phenol] returned an EC50 of 30 to 100 µM.

Turning to `Fc1cc(F)cc(Cn2c(N3CCNCC3)nc3ccccc32)c1` [Example 14, 1-(3,5-difluorobenzyl)-2-(piperazin-1-yl)-1H-benzo[d]imidazole trifluoroacetate], the 50% effective concentration (EC50) is 5 to 30 µM.

`Cc1cc(CN2CCCCC2)c2ncn(Cc3ccc(F)c(Cl)c3)c2c1` [Example 144, 1-(3-chloro-4-fluorobenzyl)-6-methyl-4-(piperidin-1-ylmethyl)-1H-benzo[d]imidazole trifluoroacetate] had an EC50 of 30 to 100 µM.

The compound `NCCNc1nc2ccccc2n1Cc1cc(F)cc(F)c1` [Example 15, N^1-(1-(3,5-difluorobenzyl)-1H-benzo[d]imidazol-2-yl)ethane-1,2-diamine trifluoroacetate] showed an EC50 of 5 to 30 µM.

With `Cc1cnc2ncn(Cc3ccc(F)c(Cl)c3)c2c1` [Example 243, 1-(3-chloro-4-fluorobenzyl)-6-methyl-1H-imidazo[4,5-b]pyridine], the EC50 lay in the range of 30 to 100 µM.

`NCCNc1nc2ncccc2n1Cc1ccc(F)cc1` [Example 250, N^1-(1-(4-fluorobenzyl)-1H-imidazo[4,5-b]pyridin-2-yl)ethane-1,2-diamine] came in with an EC50 of 5 to 30 µM.

By EC50 is commonly meant the midpoint of the concentration-response curve. Low values mean higher potency in that assay, high ones lower potency in that assay.
